The assay concerns CLDN14 mRNA. Briefly: CLDN14 mRNA levels in primary cultures / freshly isolated mouse TALH cells (real-time PCR). The settings on record: versus vehicle. The class given is cell-based. The method, then: An immunomagnetic separation method was used to isolate the TAL cells from the mouse kidney (Hou et al., 2009). Antibodies against the TAL cell specific surface antigen, Tamm-Horsfall protein (THP), were coated onto the paramagnetic polystyrene beads (Dynabeads M-280; Dynal), allowing immunoprecipitation of the TAL cells from collagenase digested mouse kidneys. The isolated cells were plated in DMEM medium supplemented with 10% FBS, penicillin/streptomycin, and 1 mM sodium pyruvate for 16 hours, followed by immediate transfection with NFAT or antagomirs.
Total RNA including microRNA was extracted using Trizol (Invitrogen). Cellular mRNA was reverse transcribed using the Superscript-III kit (Invitrogen), followed by real-time PCR amplification using SYBR Green PCR Master Mix (Bio-Rad) and Eppendorf Realplex2S system. The design of claudin-14 primers was described above. The design of pri-miRNA primers was according to Ma et al., (2010). Results were expressed as 2^−ΔCt values with ΔCT=Ctgene−Ctβ-actin.
An immunomagnetic separation method was used to isolate the TALH cells from the mouse kidney. (Gong Y, et al. 2012 and Gong Y, et al. 2013) Antibodies against the TALH cell specific surface antigen, Tamm-Horsfall protein, were coated onto the paramagnetic polystyrene beads (Dynabeads M-280; Dynal), allowing immunoprecipitation of the TALH cells from collagenase digested mouse kidneys. The isolated cells were plated in DMEM medium supplemented with 10% FBS, penicillin/streptomycin, and 1 mM sodium pyruvate for 16 hours, followed by immediate treatment.
Total RNA including microRNA was extracted using Trizol (Invitrogen). Cellular mRNA was reverse transcribed using the Superscript-III kit (Invitrogen), followed by real-time PCR amplification using SYBR Green PCR Master Mix (Bio-Rad) and Eppendorf Realplex2S system. […] Results were expressed as 2^−ΔCt values with ΔCT=Ctgene−Ctβ-actin. […]
Total RNA including microRNA was extracted using Trizol (Invitrogen). […] Results were expressed as 2^−ΔCt values with ΔCT=Ctgene−Ctβ-actin. […]

Take `O=C(CCCCCCC(=O)Nc1ccccc1)NO` [SAHA, Suberanilohydroxamic acid]: the “CLDN14 mRNA levels, downregulation” value came to 38% (0.1 μM) and 54% (0.33 μM).

For the origin of these results see patent publication US20140242609A1, “Diagnosis and treatment of kidney stones, methods and compositions therefor” (Washington University, priority 2013, published 2014).
